Measurements published in patent US20170298438A1, “DETECTION AND TREATMENT OF BREAST CANCER” (The European Molecular Biology Laboratory, priority 2011, published 2017).

Legend:
Type in all cases: cell-based, human
T47D cells = assay: H3S10ph immuno-staining, mitotic phase distribution in T47D cells; design: reduction of the proportion of mitotic T47D cells in prophase/prometaphase: dose or concentration left out as unconfirmed
Method: (§1) To prepare cell monolayers, 0.5×10^6 cells were cytospun onto glass slides at 800×g for 5 min using a Cytospin 4 cytocentrifuge (Thermo Scientific), air dried and fixed in 4% neutral buffered formalin overnight.
(§2) Section deparaffinisation, antigen retrieval and immuno-staining were performed using the Bond III Autostainer and Bond Polymer Refine Detection kit (Leica) according to the manufacturer's instructions. Heat-mediated antigen retrieval and proteolytic digestion were used for H3S10ph and PAPPA antigens, respectively. Primary antibodies were applied for 40 min at the following dilutions: PAPP-A at 1/200; H3S10ph at 1/4000. Cytospin preparations were immuno-stained using the same protocol without the deparaffinisation step. Incubation without primary antibody was used as a negative control and sections of tonsil and placenta were used as positive controls for H3S10ph and PAPPA antibodies, respectively.
Two consecutive serial sections from each tissue sample and two cytospin preparations for each cell line were immuno-stained for H3S10ph for analysis of mitotic phase distribution. […]
PAPPA and ZMPSTE24 (control) are zinc-dependent metalloproteinases of the metzincin superfamily. […] PAPPA and ZMPSTE24 expression levels were determined by qRT-PCR and western blot. […]

HeLa Kyoto cells = assay: H3S10ph immuno-labelling of synchronised HeLa Kyoto cells; conditions: thymidine double block, BI2536 at 5 μM
Method: HeLa Kyoto cells were synchronised in S phase by a double thymidine block (Sigma). Briefly, a final concentration of 3 mM thymidine was added to the culture medium for 18 h, followed by release into fresh culture medium for 9 h and a second block with 3 mM thymidine for 17 h. […] Cell synchronisation was confirmed by flow cytometry. For immunofluorescence, HeLa Kyoto cells were grown on coverslips (12 mm #1 VWR International) and synchronised as described above. The synchronised cells were rinsed in PBS, fixed in 1% PFA, permeabilised with 0.1% Triton X-100/0.02% SDS, and blocked in 2% BSA. After the blocking step, phosphohistone H3 (H3S10ph) antibody was applied for 1 h at a dilution of 1/500 and after three washes with PBS, Alexa Fluor 594 antibody was added at a dilution of 1/300 for 1 h. Coverslips were washed three times in PBS and mounted with Vectashield non-fade DAPI (Vector Laboratories).

BT549 cells = assay: H3S10ph immuno-labelling, mitotic phase distribution in BT549 cells; conditions: BT549 cytospin preparations
Method: as §1
as §2, with “Incubation without primary antibody was used as a negative control and sections of tonsil and placenta were used as positive controls for H3S10ph and PAPPA antibodies, respectively.” left out
PAPPA was silenced by RNAi with a specific RNA duplex targeting PAPPA mRNA (Ambion s10042; sense 5′-GAGCCUACUUGGAUGUUAAtt-3′ (SEQ ID NO. 37) and antisense 5′-UUAACAUCCAAGUAGGCUCtg-3′ (SEQ ID NO. 38) or, alternatively, a pool of duplexes (ON-TARGETpIus SMARTpooI, Dharmacon). Non-targeting siRNA (Stealth RNAi Negative Control Med GC, Invitrogen) was used as negative control. All transfections were performed with Lipofectamine 2000 (Invitrogen). PAPPA siRNA at 100 nM final concentration was used to achieve efficient knock-down. Cells were harvested at the indicated time points post-transfection. Knock-down efficiency was assessed by qRT-PCR and/or Western blot. […]

Question: With “IGF-1: recombinant Human IGF-1 (IMR-233, Imgenex); IGF receptor agonist” as the molecule, how does the “effect on mitotic delay phenotype in T47D cells” value (T47D cells; T47D cells (PAPPA promoter methylated)) read?
Answer: The value was “reverses the mitotic delay phenotype”.

Question: And the “reduction of the proportion of mitotic T47D cells in prophase/prometaphase” value (T47D cells; recombinant human IGF-1, harvested 24 h later, cells serum starved 48 h, versus control)?
Answer: Its value is “approximately one half”.

Question: `CC[C@@H]1C(=O)N(C)c2cnc(Nc3ccc(C(=O)NC4CCN(C)CC4)cc3OC)nc2N1C1CCCC1` [BI2536] was tested. Which “phosphohistone H3 (H3S10ph) detection in synchronised cells” value (HeLa Kyoto cells) did it give?
Answer: The value was “enrichment of prometaphase cells”.

Question: “siRNA-42: single RNA duplex targeting PAPPA mRNA, Ambion s10042 (SEQ ID NO. 37 and 38) (chain 1 GAGCCUACUUGGAUGUUAA; chain 2 UUAACAUCCAAGUAGGCUC; listed as RNA, chemistry not given here)” was tested. Which “mitotic phase phenotype in BT549 cells” value (BT549 cells) did it give?
Answer: The value was “prophase/prometaphase delay phenotype”.

Question: `Cc1cn([C@H]2C[C@H](O)[C@@H](CO)O2)c(=O)[nH]c1=O` [thymidine] was tested. Which “phosphohistone H3 (H3S10ph) detection in synchronised cells” value (HeLa Kyoto cells) did it give?
Answer: Its value is “not detected”.
